Source: ChEMBL document CHEMBL1201862, “PubChem BioAssay data set” (2004)
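Method: 48-hour compound exposure of cells in 96-well plates, five concentrations, linear interpolation of endpoints. GI50: concentration for 50% inhibition of growth.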 Active and inactive are the calls of the source. Rule as the data show it: active = GI50 up to about 1.1 µM and inactive = higher.

What was measured:
Test in all cases: NCI-60 cell line screen, 48 h
LOX IMVI = tested on: LOX IMVI
CCRF-CEM = tested on: CCRF-CEM
SK-MEL-28 = tested on: SK-MEL-28
UACC-62 = tested on: UACC-62
IGROV-1 = tested on: IGROV-1
HL-60 = tested on: HL-60
MDA-MB-231 = tested on: MDA-MB-231
PC-3 = tested on: PC-3
SW-620 = tested on: SW-620
SF-539 = tested on: SF-539
SN12C = tested on: SN12C
SR = tested on: SR
HCT-15 = tested on: HCT-15
EKVX = tested on: EKVX
MCF7 = tested on: MCF7
T47D = tested on: T47D
NCI-H226 = tested on: NCI-H226
UO-31 = tested on: UO-31
HOP-62 = tested on: HOP-62
HT-29 = tested on: HT-29
KM12 = tested on: KM12
A498 = tested on: A498
ACHN = tested on: ACHN
OVCAR-8 = tested on: OVCAR-8
CAKI-1 = tested on: CAKI-1
HCC 2998 = tested on: HCC 2998
TK-10 = tested on: TK-10
SNB-19 = tested on: SNB-19
RPMI-8226 = tested on: RPMI-8226
SK-MEL-2 = tested on: SK-MEL-2
SK-MEL-5 = tested on: SK-MEL-5
COLO 205 = tested on: COLO 205
MOLT-4 = tested on: MOLT-4
786-0 = tested on: 786-0
BT-549 = tested on: BT-549
MDA-N = tested on: MDA-N
SF-295 = tested on: SF-295
OVCAR-4 = tested on: OVCAR-4
K562 = tested on: K562
SF-268 = tested on: SF-268
HOP-92 = tested on: HOP-92
NCI-H23 = tested on: NCI-H23
M14 = tested on: M14
NCI-H460 = tested on: NCI-H460
MDA-MB-435 = tested on: MDA-MB-435
SNB-75 = tested on: SNB-75
U-251 = tested on: U-251
Hs-578T = tested on: Hs-578T
UACC-257 = tested on: UACC-257
NCI/ADR-RES = tested on: NCI/ADR-RES
DU-145 = tested on: DU-145
OVCAR-3 = tested on: OVCAR-3
SK-OV-3 = tested on: SK-OV-3
A549 = tested on: A549
NCI-H522 = tested on: NCI-H522
HCT-116 = tested on: HCT-116
OVCAR-5 = tested on: OVCAR-5
RXF 393 = tested on: RXF 393
Malme-3M = tested on: Malme-3M

For `C=CC1=C(C)c2cc3[nH]c(c4c5nc(cc6[nH]c(cc1n2)c(C)c6CC)C=C5C(=O)C4C(=O)OC)C(CCC(=O)OC/C=C(\C)CCCC(C)CCCC(C)CCCC(C)C)C3C.C=CC1=C(C)c2cc3[nH]c(c4c5nc(cc6[nH]c(cc1n2)c(C=O)c6CC)C=C5C(=O)C4C(=O)OC)C(CCC(=O)OC/C=C(\C)CCCC(C)CCCC(C)CCCC(C)C)C3C` (stereo not given), the GI50 (LOX IMVI) was > 100 µM (inactive), the GI50 (CCRF-CEM) was 10 µM (inactive) and the GI50 (SK-MEL-28) was > 100 µM (inactive). The GI50 (UACC-62) was > 100 µM (inactive), the GI50 (IGROV-1) was 38.9 µM (inactive) and the GI50 (HL-60) was 10 µM (inactive). The GI50 (MDA-MB-231) was > 100 µM (inactive), the GI50 (PC-3) was > 100 µM (inactive) and the GI50 (SW-620) was > 100 µM (inactive). The GI50 (SF-539) was > 100 µM (inactive), the GI50 (SN12C) was > 100 µM (inactive) and the GI50 (SR) was > 100 µM (inactive). For the same compound, the GI50 (HCT-15) was > 100000 nM, the GI50 (EKVX) was 50.6 µM (inactive) and the GI50 (MCF7) was > 100 µM (inactive). For the same compound, the GI50 (T47D) was > 100 µM (inactive), the GI50 (NCI-H226) was > 100 µM (inactive) and the GI50 (UO-31) was > 100 µM (inactive). For the same compound, the GI50 (HOP-62) was > 100 µM (inactive), the GI50 (HT-29) was > 100 µM (inactive) and the GI50 (KM12) was > 100 µM (inactive). For the same compound, the GI50 (A498) was > 100 µM (inactive), the GI50 (ACHN) was > 100 µM (inactive) and the GI50 (OVCAR-8) was 43 µM (inactive). The GI50 (CAKI-1) was > 100 µM (inactive), the GI50 (HCC 2998) was > 100 µM (inactive) and the GI50 (TK-10) was > 100 µM (inactive). For the same compound, the GI50 (SNB-19) was > 100 µM (inactive), the GI50 (RPMI-8226) was > 100 µM (inactive) and the GI50 (SK-MEL-2) was > 100 µM (inactive). For the same compound, the GI50 (SK-MEL-5) was > 100 µM (inactive), the GI50 (COLO 205) was 43.9 µM (inactive) and the GI50 (MOLT-4) was > 100 µM (inactive). The GI50 (786-0) was > 100 µM (inactive), the GI50 (BT-549) was 76.4 µM (inactive) and the GI50 (MDA-N) was > 100 µM (inactive). For the same compound, the GI50 (SF-295) was > 100 µM (inactive), the GI50 (OVCAR-4) was > 100 µM (inactive) and the GI50 (K562) was > 100 µM (inactive). The GI50 (SF-268) was > 100 µM (inactive), the GI50 (HOP-92) was > 100 µM (inactive) and the GI50 (NCI-H23) was > 100 µM (inactive). For the same compound, the GI50 (M14) was > 100 µM (inactive), the GI50 (NCI-H460) was > 100 µM (inactive) and the GI50 (MDA-MB-435) was > 100 µM (inactive). For the same compound, the GI50 (SNB-75) was > 100 µM (inactive), the GI50 (U-251) was > 100 µM (inactive) and the GI50 (Hs-578T) was > 100 µM (inactive). The GI50 (UACC-257) was > 100 µM (inactive), the GI50 (NCI/ADR-RES) was > 100 µM (inactive) and the GI50 (DU-145) was > 100 µM (inactive). The GI50 (OVCAR-3) was > 100 µM (inactive), the GI50 (SK-OV-3) was > 100 µM (inactive) and the GI50 (A549) was > 100 µM (inactive). The GI50 (NCI-H522) was 22.6 µM (inactive), the GI50 (HCT-116) was > 100 µM (inactive) and the GI50 (OVCAR-5) was > 100 µM (inactive).
For `C/C=C/C=C\C=C/C(O)C(C)C(CCC(C)C1OC(=O)C=CC1C)OP(=O)(O)O` (stereo not given), the GI50 (LOX IMVI) was 0.314 µM (active), the GI50 (CCRF-CEM) was 0.243 µM (active) and the GI50 (SK-MEL-28) was 0.804 µM (active). The GI50 (UACC-62) was 0.319 µM (active), the GI50 (IGROV-1) was 0.275 µM (active) and the GI50 (HL-60) was 0.0425 µM (active). The GI50 (MDA-MB-231) was 35.8 µM (inactive), the GI50 (PC-3) was 0.23 µM (active) and the GI50 (SW-620) was 0.479 µM (active). For the same compound, the GI50 (SF-539) was 0.461 µM (active), the GI50 (SN12C) was 0.323 µM (active) and the GI50 (SR) was 0.176 µM (active). For the same compound, the GI50 (HCT-15) was 445 nM, the GI50 (EKVX) was 0.447 µM (active) and the GI50 (MCF7) was 0.272 µM (active). For the same compound, the GI50 (T47D) was 0.386 µM (active), the GI50 (NCI-H226) was 0.614 µM (active) and the GI50 (UO-31) was 0.399 µM (active). For the same compound, the GI50 (HOP-62) was 0.303 µM (active), the GI50 (HT-29) was 0.376 µM (active) and the GI50 (KM12) was 0.318 µM (active). For the same compound, the GI50 (A498) was 0.22 µM (active), the GI50 (ACHN) was 0.351 µM (active) and the GI50 (OVCAR-8) was 0.451 µM (active). For the same compound, the GI50 (CAKI-1) was 0.136 µM (active), the GI50 (TK-10) was 0.618 µM (active) and the GI50 (SNB-19) was 0.562 µM (active). The GI50 (RPMI-8226) was 0.127 µM (active), the GI50 (SK-MEL-2) was 0.692 µM (active) and the GI50 (SK-MEL-5) was 0.658 µM (active). The GI50 (COLO 205) was 0.268 µM (active), the GI50 (MOLT-4) was 0.275 µM (active) and the GI50 (786-0) was 0.404 µM (active). The GI50 (BT-549) was 0.224 µM (active), the GI50 (MDA-N) was 0.296 µM (active) and the GI50 (SF-295) was 0.287 µM (active). For the same compound, the GI50 (OVCAR-4) was 1.23 µM (inactive), the GI50 (RXF 393) was 527 nM (active) and the GI50 (K562) was 0.183 µM (active). The GI50 (SF-268) was 0.59 µM (active), the GI50 (HOP-92) was 0.244 µM (active) and the GI50 (Malme-3M) was 232 nM (active). The GI50 (NCI-H23) was 1.52 µM (inactive), the GI50 (M14) was 0.229 µM (active) and the GI50 (NCI-H460) was 0.4 µM (active). The GI50 (MDA-MB-435) was 0.133 µM (active), the GI50 (SNB-75) was 0.986 µM (active) and the GI50 (U-251) was 0.893 µM (active). For the same compound, the GI50 (Hs-578T) was 1.42 µM (inactive), the GI50 (UACC-257) was 1.15 µM (inactive) and the GI50 (NCI/ADR-RES) was 0.897 µM (active). For the same compound, the GI50 (DU-145) was 0.399 µM (active), the GI50 (OVCAR-3) was 0.182 µM (active) and the GI50 (SK-OV-3) was 0.502 µM (active). For the same compound, the GI50 (A549) was 0.538 µM (active), the GI50 (NCI-H522) was 1.35 µM (inactive) and the GI50 (HCT-116) was 0.251 µM (active). The GI50 (OVCAR-5) was 0.263 µM (active).
